Source: PubChem BioAssay (NCI)
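Cultured in 96-well plates, cells were exposed to test compound for 48 hours across five concentrations. At the GI50, growth is halved. TGI is the concentration that stops growth completely.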

How the values were obtained:
Test in all cases: NCI-60 cell line screen, 48 h
786-0 renal = test system: 786-0 renal
A498 renal = test system: A498 renal
A549 NSCLC = test system: A549 NSCLC
ACHN renal = test system: ACHN renal
BT-549 breast = test system: BT-549 breast
CAKI-1 renal = test system: CAKI-1 renal
COLO 205 colon = test system: COLO 205 colon
DU-145 prostate = test system: DU-145 prostate
EKVX NSCLC = test system: EKVX NSCLC
HCC-2998 colon = test system: HCC-2998 colon
HCT-15 colon = test system: HCT-15 colon
HL-60(TB) leukemia = test system: HL-60(TB) leukemia
HOP-62 NSCLC = test system: HOP-62 NSCLC
HOP-92 NSCLC = test system: HOP-92 NSCLC
HS 578T breast = test system: HS 578T breast
HT29 colon = test system: HT29 colon
IGROV1 ovarian = test system: IGROV1 ovarian
K-562 leukemia = test system: K-562 leukemia
KM12 colon = test system: KM12 colon
LOX IMVI melanoma = test system: LOX IMVI melanoma
MALME-3M melanoma = test system: MALME-3M melanoma
MCF7 breast = test system: MCF7 breast
MDA-MB-231 breast = test system: MDA-MB-231 breast
MDA-MB-435 = test system: MDA-MB-435
MDA-MB-468 breast = test system: MDA-MB-468 breast
MOLT-4 leukemia = test system: MOLT-4 leukemia
NCI-H226 lung = test system: NCI-H226 lung
NCI-H23 lung = test system: NCI-H23 lung
NCI-H460 lung = test system: NCI-H460 lung
NCI-H522 lung = test system: NCI-H522 lung
NCI/ADR-RES ovarian = test system: NCI/ADR-RES ovarian
OVCAR-3 ovarian = test system: OVCAR-3 ovarian
OVCAR-4 ovarian = test system: OVCAR-4 ovarian
OVCAR-5 ovarian = test system: OVCAR-5 ovarian
OVCAR-8 ovarian = test system: OVCAR-8 ovarian
PC-3 prostate = test system: PC-3 prostate
RXF 393 renal = test system: RXF 393 renal
SF-268 CNS = test system: SF-268 CNS
SF-295 CNS = test system: SF-295 CNS
SF-539 CNS = test system: SF-539 CNS
SK-MEL-2 melanoma = test system: SK-MEL-2 melanoma
SK-MEL-28 melanoma = test system: SK-MEL-28 melanoma
SK-MEL-5 melanoma = test system: SK-MEL-5 melanoma
SK-OV-3 ovarian = test system: SK-OV-3 ovarian
SN12C renal = test system: SN12C renal
SNB-19 CNS = test system: SNB-19 CNS
SNB-75 CNS = test system: SNB-75 CNS
SW-620 colon = test system: SW-620 colon
T-47D breast = test system: T-47D breast
TK-10 renal = test system: TK-10 renal
U251 CNS = test system: U251 CNS
UACC-257 melanoma = test system: UACC-257 melanoma
UACC-62 melanoma = test system: UACC-62 melanoma
UO-31 renal = test system: UO-31 renal

**Q.** With `COc1ccc(C(=O)/C=C/c2ccc(Cl)c(C(F)(F)F)c2)cc1S(N)(=O)=O` as the compound, how does the GI50 (786-0 renal) read?
**A.** 419 nM

**Q.** What about the TGI (786-0 renal) of the same compound?
**A.** 1800 nM

**Q.** And the GI50 (A498 renal)?
**A.** 12.9 µM

**Q.** And the TGI (A498 renal)?
**A.** 25.6 µM

**Q.** And the GI50 (A549 NSCLC)?
**A.** 2340 nM

**Q.** And the TGI (A549 NSCLC)?
**A.** 10.3 µM

**Q.** And the GI50 (ACHN renal)?
**A.** 1470 nM

**Q.** What about the TGI (ACHN renal) of the same compound?
**A.** 2840 nM

**Q.** What about the GI50 (BT-549 breast) of the same compound?
**A.** 1710 nM

**Q.** What about the TGI (BT-549 breast) of the same compound?
**A.** 3.18 µM

**Q.** What about the GI50 (CAKI-1 renal) of the same compound?
**A.** 1570 nM

**Q.** And the TGI (CAKI-1 renal)?
**A.** 4.16 µM

**Q.** What about the GI50 (COLO 205 colon) of the same compound?
**A.** 1960 nM

**Q.** And the TGI (COLO 205 colon)?
**A.** 4.08 µM

**Q.** What about the GI50 (DU-145 prostate) of the same compound?
**A.** 4.99 µM

**Q.** What about the TGI (DU-145 prostate) of the same compound?
**A.** 17 µM

**Q.** What about the GI50 (EKVX NSCLC) of the same compound?
**A.** 2150 nM

**Q.** And the TGI (EKVX NSCLC)?
**A.** 5.75 µM

**Q.** What about the GI50 (HCC-2998 colon) of the same compound?
**A.** 1590 nM

**Q.** And the TGI (HCC-2998 colon)?
**A.** 2930 nM

**Q.** And the GI50 (HCT-15 colon)?
**A.** 893 nM

**Q.** What about the TGI (HCT-15 colon) of the same compound?
**A.** 2340 nM

**Q.** And the GI50 (HL-60(TB) leukemia)?
**A.** 1720 nM

**Q.** What about the TGI (HL-60(TB) leukemia) of the same compound?
**A.** 5.49 µM

**Q.** What about the GI50 (HOP-62 NSCLC) of the same compound?
**A.** 1930 nM

**Q.** What about the TGI (HOP-62 NSCLC) of the same compound?
**A.** 4.13 µM

**Q.** And the GI50 (HOP-92 NSCLC)?
**A.** 2010 nM

**Q.** What about the TGI (HOP-92 NSCLC) of the same compound?
**A.** 5.81 µM

**Q.** And the GI50 (HS 578T breast)?
**A.** 6.57 µM

**Q.** And the TGI (HS 578T breast)?
**A.** 38.8 µM

**Q.** And the GI50 (HT29 colon)?
**A.** 1520 nM

**Q.** What about the TGI (HT29 colon) of the same compound?
**A.** 3.06 µM

**Q.** And the GI50 (IGROV1 ovarian)?
**A.** 1870 nM

**Q.** And the TGI (IGROV1 ovarian)?
**A.** 4.01 µM

**Q.** And the GI50 (K-562 leukemia)?
**A.** 1080 nM

**Q.** What about the TGI (K-562 leukemia) of the same compound?
**A.** > 100 µM

**Q.** And the GI50 (KM12 colon)?
**A.** 1760 nM

**Q.** And the TGI (KM12 colon)?
**A.** 5.65 µM

**Q.** And the GI50 (LOX IMVI melanoma)?
**A.** 313 nM

**Q.** And the TGI (LOX IMVI melanoma)?
**A.** 1100 nM

**Q.** And the GI50 (MALME-3M melanoma)?
**A.** 1880 nM

**Q.** What about the TGI (MALME-3M melanoma) of the same compound?
**A.** 4.01 µM

**Q.** And the GI50 (MCF7 breast)?
**A.** 333 nM

**Q.** What about the TGI (MCF7 breast) of the same compound?
**A.** 1390 nM

**Q.** What about the GI50 (MDA-MB-231 breast) of the same compound?
**A.** 1690 nM

**Q.** And the TGI (MDA-MB-231 breast)?
**A.** 3.37 µM

**Q.** What about the GI50 (MDA-MB-435) of the same compound?
**A.** 1750 nM

**Q.** What about the TGI (MDA-MB-435) of the same compound?
**A.** 4.28 µM

**Q.** And the GI50 (MDA-MB-468 breast)?
**A.** 1340 nM

**Q.** What about the TGI (MDA-MB-468 breast) of the same compound?
**A.** 2690 nM

**Q.** And the GI50 (MOLT-4 leukemia)?
**A.** 2570 nM

**Q.** What about the TGI (MOLT-4 leukemia) of the same compound?
**A.** 8.33 µM

**Q.** What about the GI50 (NCI-H226 lung) of the same compound?
**A.** 2220 nM

**Q.** And the TGI (NCI-H226 lung)?
**A.** 5.6 µM

**Q.** And the GI50 (NCI-H23 lung)?
**A.** 1620 nM

**Q.** What about the TGI (NCI-H23 lung) of the same compound?
**A.** 3.04 µM

**Q.** And the GI50 (NCI-H460 lung)?
**A.** 2400 nM

**Q.** And the TGI (NCI-H460 lung)?
**A.** 6.62 µM

**Q.** What about the GI50 (NCI-H522 lung) of the same compound?
**A.** 1540 nM

**Q.** What about the TGI (NCI-H522 lung) of the same compound?
**A.** 3.15 µM

**Q.** And the GI50 (NCI/ADR-RES ovarian)?
**A.** 1050 nM

**Q.** What about the TGI (NCI/ADR-RES ovarian) of the same compound?
**A.** 3.33 µM

**Q.** And the GI50 (OVCAR-3 ovarian)?
**A.** 1420 nM

**Q.** What about the TGI (OVCAR-3 ovarian) of the same compound?
**A.** 2870 nM

**Q.** What about the GI50 (OVCAR-4 ovarian) of the same compound?
**A.** 2800 nM

**Q.** And the TGI (OVCAR-4 ovarian)?
**A.** 12.5 µM

**Q.** What about the GI50 (OVCAR-5 ovarian) of the same compound?
**A.** 3.27 µM

**Q.** What about the TGI (OVCAR-5 ovarian) of the same compound?
**A.** 9.35 µM

**Q.** And the GI50 (OVCAR-8 ovarian)?
**A.** 1740 nM

**Q.** What about the TGI (OVCAR-8 ovarian) of the same compound?
**A.** 4.51 µM

**Q.** And the GI50 (PC-3 prostate)?
**A.** 1750 nM

**Q.** And the TGI (PC-3 prostate)?
**A.** 4.52 µM

**Q.** What about the GI50 (RXF 393 renal) of the same compound?
**A.** 1640 nM

**Q.** What about the TGI (RXF 393 renal) of the same compound?
**A.** 3.1 µM

**Q.** What about the GI50 (SF-268 CNS) of the same compound?
**A.** 10 µM

**Q.** And the TGI (SF-268 CNS)?
**A.** 32.1 µM

**Q.** What about the GI50 (SF-295 CNS) of the same compound?
**A.** 1640 nM

**Q.** And the TGI (SF-295 CNS)?
**A.** 3.32 µM

**Q.** And the GI50 (SF-539 CNS)?
**A.** 1610 nM

**Q.** And the TGI (SF-539 CNS)?
**A.** 3000 nM

**Q.** What about the GI50 (SK-MEL-2 melanoma) of the same compound?
**A.** 6.78 µM

**Q.** What about the TGI (SK-MEL-2 melanoma) of the same compound?
**A.** 20.4 µM

**Q.** And the GI50 (SK-MEL-28 melanoma)?
**A.** 1740 nM

**Q.** And the TGI (SK-MEL-28 melanoma)?
**A.** 3.19 µM

**Q.** What about the GI50 (SK-MEL-5 melanoma) of the same compound?
**A.** 3.63 µM

**Q.** What about the TGI (SK-MEL-5 melanoma) of the same compound?
**A.** 13.3 µM

**Q.** And the GI50 (SK-OV-3 ovarian)?
**A.** 7.9 µM

**Q.** What about the TGI (SK-OV-3 ovarian) of the same compound?
**A.** 23.8 µM

**Q.** What about the GI50 (SN12C renal) of the same compound?
**A.** 1450 nM

**Q.** What about the TGI (SN12C renal) of the same compound?
**A.** 2940 nM

**Q.** What about the GI50 (SNB-19 CNS) of the same compound?
**A.** 1660 nM

**Q.** What about the TGI (SNB-19 CNS) of the same compound?
**A.** 3.37 µM

**Q.** What about the GI50 (SNB-75 CNS) of the same compound?
**A.** 1620 nM

**Q.** What about the TGI (SNB-75 CNS) of the same compound?
**A.** 9.69 µM

**Q.** What about the GI50 (SW-620 colon) of the same compound?
**A.** 1230 nM

**Q.** What about the TGI (SW-620 colon) of the same compound?
**A.** 2690 nM

**Q.** And the GI50 (T-47D breast)?
**A.** 2370 nM

**Q.** And the TGI (T-47D breast)?
**A.** 9.36 µM

**Q.** And the GI50 (TK-10 renal)?
**A.** 2590 nM

**Q.** What about the TGI (TK-10 renal) of the same compound?
**A.** 7.23 µM

**Q.** What about the GI50 (U251 CNS) of the same compound?
**A.** 1420 nM

**Q.** What about the TGI (U251 CNS) of the same compound?
**A.** 3.08 µM

**Q.** And the GI50 (UACC-257 melanoma)?
**A.** 2100 nM

**Q.** What about the TGI (UACC-257 melanoma) of the same compound?
**A.** 6.2 µM

**Q.** What about the GI50 (UACC-62 melanoma) of the same compound?
**A.** 1520 nM

**Q.** And the TGI (UACC-62 melanoma)?
**A.** 3.41 µM

**Q.** And the GI50 (UO-31 renal)?
**A.** 1400 nM

**Q.** And the TGI (UO-31 renal)?
**A.** 2740 nM
